# “Also recorded” adds a separate entry of the source.
# Tested on: haematin dimerization to β-haematin
# Assay: not given
# Conditions: cited from earlier work
row,Compound,inhibition of spontaneous haematin dimerization to β-haematin in vitro
1,"C=C[C@H]1CN2CC[C@H]1C[C@@H]2C(O)c1ccnc2ccc(OC)cc12 (some centres unmarked) [Q, 6'-methoxy cinchonan-9-ol]",inhibits

# Tested on: haematin dimerization to β-haematin
# Assay: β-Haematin Inhibitory Activity
# Type: biochemical
# Conditions: 10 fold molar excess of drug
row,Compound,inhibition of the BHIA haematin dimerization reaction (in words)
1,"C=C[C@H]1C[N@@]2CC[C@H]1C[C@@H]2[C@@H](O)c1ccnc2ccccc12 [C, cinchonine]",activity; also recorded: inhibited
2,"C=C[C@H]1CN2CC[C@H]1C[C@H]2[C@H](O)c1ccnc2ccccc12 [CD, cinchonidine]",activity; also recorded: inhibited
3,"CCN(CC)CCCC(C)Nc1ccnc2cc(Cl)ccc12 (centres unmarked) [CQ, chloroquine]",inhibited
4,"CC[C@H]1CN2CC[C@H]1C[C@H]2[C@H](O)c1ccnc2ccc(OC)cc12 [HQ, hydroquinine]",activity; also recorded: inhibited
5,"CC[C@H]1CN2CC[C@H]1C[C@@H]2[C@@H](O)c1ccnc2ccc(OC)cc12 [HQD, hydroquinidine]",activity; also recorded: inhibited
6,"CC(CN1c2ccccc2Sc2ccccc21)N(C)C (centres unmarked) [PMZ, promethazine]",Significant inhibition was not seen
7,"C=C[C@H]1CN2CC[C@H]1C[C@@H]2C(O)c1ccnc2ccc(OC)cc12 (some centres unmarked) [Q, 6'-methoxy cinchonan-9-ol]",activity; also recorded: inhibited
8,"C=C[C@H]1C[N@@]2CC[C@H]1C[C@@H]2[C@@H](O)c1ccnc2ccc(OC)cc12 [QD, quinidine]",activity; also recorded: inhibited
9,"COc1ccc(CCN(C)CCCC(C#N)(c2ccc(OC)c(OC)c2)C(C)C)cc1OC (centres unmarked) [VE, Verapamil]",Significant inhibition was not seen; also recorded: no significant interaction

# Same assay, conditions: 10 fold molar excess of drug; listed as PM
row,Compound,inhibition of the BHIA haematin dimerization reaction (in words)
1,"CC(CN1c2ccccc2Sc2ccccc21)N(C)C (centres unmarked) [PMZ, promethazine]",no significant interaction
